Laboratory results as given in US20160355530A1, “HEPATITIS C INHIBITORS AND USES THEREOF” (AbbVie Inc., priority 2010, published 2016).
Read-outs that look alike come from different tables or passages of the source.

Assays:
[1] = test system: HCV 1b-BB7 subgenomic replicon; test: microbe, parasite or virus in culture; type: cell-based, HCV genotype 1b; conditions: Hepatitis C virus, stable replicon
[2] = test system: chimeric replicon with genotype 3a NS5B; test: microbe, parasite or virus in culture; type: cell-based, HCV genotype 3a; conditions: Hepatitis C virus, read-out: 3a chimera 5% FBS EC50
[3] = test system: chimeric replicon with genotype 2b NS5B; test: microbe, parasite or virus in culture; type: cell-based, HCV genotype 2b; conditions: Hepatitis C virus, read-out: 2b chimera 5% FBS EC50
[4] = molecular target: T1, HCV NS5B polymerase 1b BK strain (Hepatitis C virus genotype 1b, UniProt P26663); test: HCV NS5B polymerase enzymatic inhibition assay, strain 1b BK; type: biochemical; conditions: enzyme, strain 1b BK; read-out: HCV Polymerase Strain 1b BK IC50
T1 construct: six-histidine tag; made in house; host or cells: E. coli
In short: (§1)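 Incorporation of [3H]UTP (0.284 μM), alongside 20 μM each CTP and ATP, into RNA copied from a 5 nM 2.1 kb genotype 1b negative-strand template was measured after 3 h at 30° C using purified His-tagged NS5B truncated at residue 570. Product was spermine-precipitated, filtered and scintillation-counted; nonlinear regression gave IC50.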

[5] = test system: chimeric replicon with genotype 4a NS5B; test: microbe, parasite or virus in culture; type: cell-based, HCV genotype 4a; conditions: Hepatitis C virus, read-out: 4a chimera 5% FBS EC50
[6] = test system: HCV 1a-H77 subgenomic replicon; test: microbe, parasite or virus in culture; type: cell-based, HCV genotype 1a; conditions: Hepatitis C virus, stable replicon
[7] = test system: chimeric replicon with 2a-J6CF-derived NS5B; test: microbe, parasite or virus in culture; type: cell-based, HCV genotype 2a; conditions: Hepatitis C virus, read-out: 2a chimera 5% FBS EC50
[8] = molecular target: T2, HCV NS5B polymerase 1a-H77 (Hepatitis C virus genotype 1a, UniProt P27958); test: biochemical; design: species or system HCV genotype 1a; conditions: enzyme, strain 1a H77; read-out: HCV Polymerase Strain 1a H77 IC50
T2 construct: six-histidine tag; made in house; host or cells: E. coli
In short: as §1

[9] = test system: HCV NS5B polymerase 1a-H77-C316Y; test: biochemical; design: species or system HCV genotype 1a; conditions: ratio of enzyme IC50s, 1a H77-C316Y / 1a H77
In short: as §1

[10] = molecular target: T3, HCV NS5B polymerase 1a-H77-C316Y (Hepatitis C virus genotype 1a, UniProt P27958, C2736Y); test: biochemical; design: species or system HCV genotype 1a
T3 construct: six-histidine tag; made in house; host or cells: E. coli
In short: as §1

[11] = strain 1b BB7, 5% FBS + 40% human plasma, read-out: 1b BB7 5% FBS + 40% Human Plasma EC50
[12] = strain 1b BB7, 5% FBS, no human plasma, read-out: 1b BB7 5% FBS EC50
[13] = strain 1b BB7, 5% FBS, read-out: 1b BB7 5% FBS EC50
[14] = 5% FBS, absence of human plasma, read-out: Stable Replicon 1a H77 5% FBS EC50
[15] = strain 1a H77, 5% FBS + 40% human plasma, read-out: 1a H77 5% FBS + 40% Human Plasma EC50
[16] = strain 1a H77, 5% FBS, no human plasma, read-out: 1a H77 5% FBS EC50
[17] = strain 1a H77, 5% FBS, read-out: 1a H77 5% FBS EC50

T3 sequence (P27958 2421-2990 C2736Y): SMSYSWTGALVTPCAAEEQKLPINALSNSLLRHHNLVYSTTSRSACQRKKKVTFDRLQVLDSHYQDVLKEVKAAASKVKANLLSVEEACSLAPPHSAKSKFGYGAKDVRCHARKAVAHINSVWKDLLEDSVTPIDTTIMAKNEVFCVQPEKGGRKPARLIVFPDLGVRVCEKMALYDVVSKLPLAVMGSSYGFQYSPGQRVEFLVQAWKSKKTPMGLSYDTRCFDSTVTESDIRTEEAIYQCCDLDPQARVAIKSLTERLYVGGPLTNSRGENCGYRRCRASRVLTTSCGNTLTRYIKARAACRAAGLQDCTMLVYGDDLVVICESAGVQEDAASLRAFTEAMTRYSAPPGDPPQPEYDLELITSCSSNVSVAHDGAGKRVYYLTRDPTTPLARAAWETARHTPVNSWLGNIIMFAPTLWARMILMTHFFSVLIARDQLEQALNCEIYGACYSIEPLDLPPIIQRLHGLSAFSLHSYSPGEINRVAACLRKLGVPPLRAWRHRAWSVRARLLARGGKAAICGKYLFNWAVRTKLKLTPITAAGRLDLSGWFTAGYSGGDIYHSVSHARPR
T2 sequence (P27958 2421-2990): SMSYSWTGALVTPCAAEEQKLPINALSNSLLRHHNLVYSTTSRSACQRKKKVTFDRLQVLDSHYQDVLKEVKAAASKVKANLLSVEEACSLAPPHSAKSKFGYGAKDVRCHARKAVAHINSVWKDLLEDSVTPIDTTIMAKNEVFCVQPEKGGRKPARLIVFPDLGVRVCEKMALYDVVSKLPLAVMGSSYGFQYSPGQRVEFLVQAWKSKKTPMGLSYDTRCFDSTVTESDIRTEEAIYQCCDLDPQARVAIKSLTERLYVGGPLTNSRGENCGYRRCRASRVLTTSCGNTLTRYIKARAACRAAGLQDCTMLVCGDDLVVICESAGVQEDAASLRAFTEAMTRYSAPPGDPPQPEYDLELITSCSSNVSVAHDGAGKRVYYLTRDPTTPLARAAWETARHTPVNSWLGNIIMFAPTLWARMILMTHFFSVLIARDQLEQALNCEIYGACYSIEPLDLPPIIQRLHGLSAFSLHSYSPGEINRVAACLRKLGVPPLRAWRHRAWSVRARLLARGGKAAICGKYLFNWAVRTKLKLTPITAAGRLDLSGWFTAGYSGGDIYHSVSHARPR
T1 sequence (P26663 2420-2989): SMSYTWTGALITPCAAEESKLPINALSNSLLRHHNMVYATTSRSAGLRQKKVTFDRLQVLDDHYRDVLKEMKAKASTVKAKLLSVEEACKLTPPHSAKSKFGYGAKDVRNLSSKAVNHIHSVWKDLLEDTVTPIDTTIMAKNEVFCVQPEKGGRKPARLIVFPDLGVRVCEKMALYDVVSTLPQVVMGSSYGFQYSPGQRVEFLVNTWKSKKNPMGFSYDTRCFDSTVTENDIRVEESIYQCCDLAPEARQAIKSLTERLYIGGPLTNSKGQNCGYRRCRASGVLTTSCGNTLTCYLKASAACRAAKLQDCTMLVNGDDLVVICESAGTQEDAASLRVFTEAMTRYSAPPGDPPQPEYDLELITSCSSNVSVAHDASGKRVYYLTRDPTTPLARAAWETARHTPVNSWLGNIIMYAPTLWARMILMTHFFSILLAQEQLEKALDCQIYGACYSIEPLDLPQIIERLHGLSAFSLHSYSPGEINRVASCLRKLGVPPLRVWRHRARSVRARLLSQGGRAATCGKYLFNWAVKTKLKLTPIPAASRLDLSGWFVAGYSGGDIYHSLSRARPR

Compound | EC50 [1, 11] [nM] | EC50 [1, 12] [nM] | EC50 [1, 13] [nM] | EC50 [2] [nM] | EC50 [3] [nM] | IC50 [4] [nM] | EC50 [5] [nM] | EC50 [6, 14] [nM] | EC50 [6, 15] [nM] | EC50 [6, 16] [nM] | EC50 [6, 17] [nM] | EC50 [7] [nM] | IC50 [8] [nM] | C316Y/1a Fold Resistance [9] [fold] | IC50 [10] [nM]
CS(=O)(=O)N(CC1CCOCC1)c1cc2oc(-c3ccc(F)cc3)c(-c3ncc[nH]3)c2cc1C1CC1 [Example 38, N-[5-cyclopropyl-2-(4-fluorophenyl)-3-(1H-imidazol-2-yl)-1-benzofuran-6-yl]-N-(tetrahydro-2H-pyran-4-ylmethyl)methanesulfonamide] | 245 | 12.7 | 12.7 | 25.2 | 81.4 | 33 | 161 | 10.2 | 117 | 10.2 | 10.2 | 88.2 | 5 | 30 | 148
CCCCN(c1cc2oc(-c3ccc(F)cc3)c(-c3ncc[nH]3)c2cc1C1CC1)S(C)(=O)=O [Example 39, N-butyl-N-[5-cyclopropyl-2-(4-fluorophenyl)-3-(1H-imidazol-2-yl)-1-benzofuran-6-yl]methanesulfonamide] | 59 | 29.7 | 29.7 | 28.4 | 133 | 17 | 187 | 33.1 | 132 | 33.1 | 33.1 | 105 | 5 | 16 | 78
CS(=O)(=O)N(CCCC(F)(F)F)c1cc2oc(-c3ccc(F)cc3)c(-c3ncc[nH]3)c2cc1C1CC1 [Example 44, N-[5-cyclopropyl-2-(4-fluorophenyl)-3-(1H-imidazol-2-yl)-1-benzofuran-6-yl]-N-(4,4,4-trifluorobutyl)methanesulfonamide] | 81 | 16.1 | 16.1 | 15.1 | 97.7 | 19 | 176 | 23.7 | 420 | 23.7 | 23.7 | 93.7 | 5 | 21 | 105
CC(=O)OCCCCCN(c1cc2oc(-c3ccc(F)cc3)c(-c3ncc[nH]3)c2cc1C1CC1)S(C)(=O)=O [Example 46, 5-{[5-cyclopropyl-2-(4-fluorophenyl)-3-(1H-imidazol-2-yl)-1-benzofuran-6-yl](methylsulfonyl)amino}pentyl acetate] | 36 | 4.7 | 4.6 | 2.7 | 23.7 | 11 | 31.1 | 4.5 | 112 | 4.5 | 4.5 | 27.5 | 4.5 | 22 | 98
CS(=O)(=O)N(CCC1CCOCC1)c1cc2oc(-c3ccc(F)cc3)c(-c3ncc[nH]3)c2cc1C1CC1 [Example 48, N-[5-cyclopropyl-2-(4-fluorophenyl)-3-(1H-imidazol-2-yl)-1-benzofuran-6-yl]-N-[2-(tetrahydro-2H-pyran-4-yl)ethyl]methanesulfonamide] | 75 | 8.4 | 8.5 | 10 | 69.2 | 23 | 46.4 | 11.4 | 147 | 11.4 | 11.4 | 83.7 | 7.7 | 10 | 74
